Measurements published in patent publication US20050048088A1, “Compositions comprising at least two nanoemulsions” (priority 2003, published 2005).

Experiment: Recrystallization of CoQ10 from warm oil/alcohol solution on cooling to room temperature
Type: physicochemical
Conditions: cooled to room temperature (25° C.)
Procedure: (§1) 30 g of lecithin were dissolved in 100 g of alcohol and added with stirring to 520 g of water and 200 g of glycerin. 10 g of Coenzyme Q10 (ubichinone) [CoQ10] were dissolved at 40° C. in 40 g of vegetable oil and 100 g of alcohol (ethanol). […] Therefore, the CoQ10 solution, having a temperature of 40° C., was added to the lecithin/alcohol/glycerin/water mixture and then homogenized six times at 1200 bar (1.2·10^8 Pa) using a high pressure homgenizer of Microfluidics Corp (MT 110®), Thereby, the alcohol was homogeneously distributed in the nanoemulsion. An orange transparent nanoemulsion was obtained.
as §1, with “50 g” for “30 g”, “to 430” for “to 520”, “glycerin. 80” for “glycerin. 10”, “at 45°” for “at 40°”, “pressure homogenizer” for “pressure homgenizer”, “(MT 110®).” for “(MT 110®),”

COC1=C(OC)C(=O)C(C/C=C(\C)CC/C=C(\C)CC/C=C(\C)CC/C=C(\C)CC/C=C(\C)CC/C=C(\C)CC/C=C(\C)CC/C=C(\C)CC/C=C(\C)CCC=C(C)C)=C(C)C1=O [CoQ10, Coenzyme Q10]
behaviour of CoQ10 solution on cooling (10 g CoQ10 dissolved at 40° C. in 40 g vegetable oil and 100 g alcohol): most of the CoQ10 recrystallizes out from the solution after some hours | behaviour of CoQ10 solution on cooling (80 g CoQ10 dissolved at 45° C. in 40 g vegetable oil and 100 g alcohol): most of the CoQ10 recrystallized out from the solution after some hours
